Reference: patent US20180214463A1, “USE OF PHYTIC ACID OR THE SALTS THEREOF, ALONE OR COMBINED WITH B6 VITAMERS, FOR PREVENTING THE FORMATION OF ADVANCED GLYCATION END-PRODUCT” (UNIVERSITAT DE LES ILLES BALEARS, priority 2015, published 2018)

What was measured:
diabetic patients = assay: Clinical trial of phytate (phytin) in diabetic patients: plasma HbA1c and AGEs, urinary phytate; format: in vivo, human
formation of AGEs = assay: In vitro formation of AGEs (ribose, arginine, lysine, Fe3+; fluorescence at 7 days); format: biochemical; conditions: 37° C., vs control without inhibitors
Experimental: In an in vitro study, the inhibiting effect of phytate alone or in combination with pyridoxamine on the formation of AGEs was compared (see FIG. 2). […] In these studies, the formation of AGEs was induced by incubating a reaction mixture containing ribose (200 mM) (taken as the model reducing sugar), 1 mM arginine, 2 mM lysine (as glycation targets), and 2 μM Fe^3 (as a glycation catalyzer) with various concentrations of phytate and pyridoxamine alone or in combination at 37° C. for 7 days (in a 0.2 M phosphate buffer). The quantity of AGEs present at 7 days was determined by fluorescence.

| increase in the urinary excretion of phytate (diabetic patients; 1,140 mg phytate (as phytin) daily for 3 months, p=0.026) [%] | SMILES | decrease in plasma AGEs (diabetic patients; 1,140 mg phytate (as phytin) daily for 3 months, 33 diabetic patients, p<0.001) [%] | decrease in plasma glycated hemoglobin (HbA1c) (diabetic patients; 1,140 mg phytate (as phytin) daily for 3 months, 33 diabetic patients, p=0.017) [%] | plasma levels of HbA1c and AGEs after withdrawal (diabetic patients; three months without phytate, after three months of consuming it) | inhibition of the formation of AGEs (formation of AGEs; 1 μM inhibitor alone) [%] | inhibition of the formation of AGEs (formation of AGEs; 2 μM inhibitor alone) [%] | inhibition of the formation of AGEs (formation of AGEs; 2.5 μM inhibitor alone) [%] |
| --- | --- | --- | --- | --- | --- | --- | --- |
| 33.6 | O=P(O)(O)O[C@H]1[C@H](OP(=O)(O)O)[C@@H](OP(=O)(O)O)[C@H](OP(=O)(O)O)[C@@H](OP(=O)(O)O)[C@H]1OP(=O)(O)O [phytate, myo-inositol-hexaphosphate] | ~25.1 | ~3.9 | returning to levels similar to the baselines | 12.7 | 19.9 | – |
| – | Cc1ncc(CO)c(CN)c1O [pyridoxamine] | – | – | – | 17.5 | – | 28.2 |
